Key:
Myzus persicae [1] = test: Myzus persicae - spray test; type: in vivo; details: application rate of 500 g/ha; after 6 days; sprayed Chinese cabbage leaf discs infested by all stages; 100% = all aphids killed
How it was run: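 Chinese cabbage leaf discs infested with all stages of green peach aphid sprayed with compound in acetone/DMF formulation with alkylaryl polyglycol ether emulsifier, diluted in emulsifier-containing water. Efficacy (% aphids killed) assessed after 6 days.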

Phaedon cochleariae = Phaedon cochleariae - spray test (PHAECO); type: in vivo; details: application rate of 500 g/ha; after 7 days; larvae of the mustard beetle on sprayed Chinese cabbage leaf discs; 100% = all larvae killed
Protocol: Phaedon cochleariae—Spray Test (PHAECO)
(§1) Solvent: 78.0 parts by weight of acetone • • 1.5 parts by weight of dimethylformamide
(§2) Emulsifier: alkylaryl polyglycol ether
(§3) To produce an appropriate active ingredient formulation, 1 part by weight of active ingredient is dissolved using the specified parts by weight of solvent and made up with water containing an emulsifier concentration of 1000 ppm until the desired concentration is attained. To produce further test concentrations, the preparation is diluted with emulsifier-containing water.
Discs of Chinese cabbage leaves (Brassica pekinensis) are sprayed with an active ingredient formulation of the desired concentration and, after drying, populated with larvae of the mustard beetle (Phaedon cochleariae).
After 7 days, the efficacy in % is determined. 100% means that all the beetle larvae have been killed; 0% means that no beetle larvae have been killed.

Spodoptera frugiperda = Spodoptera frugiperda - spray test (SPODFR); type: in vivo; details: application rate of 500 g/ha; after 7 days; armyworm caterpillars on sprayed maize leaf discs; 100% = all caterpillars killed
Protocol: Spodoptera frugiperda—Spray Test (SPODFR)
as §1, §2, §3
Leaf discs of maize (Zea mays) are sprayed with an active ingredient formulation of the desired concentration and, after drying, populated with caterpillars of the armyworm (Spodopterafrugiperda).
After 7 days, the efficacy in % is determined. 100% means that all the caterpillars have been killed; 0% means that no caterpillars have been killed.

Tetranychus urticae = Tetranychus urticae - spray test, OP-resistant (TETRUR); type: in vivo; details: application rate of 500 g/ha; after 6 days; bean leaf discs infested by all stages; 100% = all spider mites killed
Protocol: Tetranychus urticae—spray test, OP-resistant (TETRUR)
as §1, §2, §3
Discs of bean leaves (Phaseolus vulgaris) infested by all stages of the greenhouse red spider mite (Tetranychus urticae) are sprayed with an active ingredient formulation of the desired concentration.
After 6 days, the efficacy in % is determined. 100% means that all the spider mites have been killed; 0% means that no spider mites have been killed.

Myzus persicae [2] = test: Myzus persicae - sachet test; type: in vivo; details: 100% = all animals killed
How it was run: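 Active ingredient dissolved with 2% N-methylpyrrolidone and 2% diacetone alcohol, diluted in water, then pipetted into nutrient medium. Plate sealed and paired with a plate carrying green peach aphids. Kill in % scored after the set time (100% = all dead, 0% = none dead).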

[3] = log P determination by LC-MS in the acidic range; type: physicochemical; details: LC-MS in the acidic range
Description: The LC-MS determination in the acidic range is effected at pH 2.7 using 0.1% aqueous formic acid and acetonitrile (contains 0.1% formic acid) as eluents, linear gradient from 10% acetonitrile to 95% acetonitrile. Alternatively, the determination is effected in the acidic range at pH 2.3 using 0.1% aqueous phosphoric acid and acetonitrile as eluents; linear gradient from 10% acetonitrile to 95% acetonitrile.

[4] = application rate of 6 ppm in nutrient medium
[5] = application rate of 30 ppm in nutrient medium

Row | log P (acid) [3] | Structure (SMILES) | efficacy in % (Myzus persicae [1]) [%] | efficacy in % (Phaedon cochleariae) [%] | efficacy in % (Spodoptera frugiperda) [%] | efficacy in % (Tetranychus urticae) [%] | efficacy (kill in %) (Myzus persicae [2]; [4]) [%] | efficacy (kill in %) (Myzus persicae [2]; [5]) [%]
1 | 1.94 | CCCC(=O)n1nc(NC(=O)c2cccnc2)cc1C [Compound I-1-131] | 90 | 100 | 100 | 90 | 100 | 100
2 | 1.59 | CCC(C)n1nc(NC(=O)c2cccnc2)cc1C (stereo not shown) [Compound I-1-205] | 100 | – | – | 90 | – | 100
3 | 0.9 | Cc1nc(Cn2nc(NC(=O)c3cccnc3)cc2C)no1 [Compound I-1-282] | 90 | – | – | 90 | 100 | 100

Reference: patent US20160106102A1, “KNOWN AND NEW HETEROCYCLIC COMPOUNDS AS PEST CONTROL AGENTS” (BAYER CROPSCIENCE AKTIENGESELLSCHAFT, priority 2013, published 2016)
